biological target: T1, recombinant human 5-HT5A receptor (Homo sapiens, UniProt P47898); experiment: [3H]LSD radioligand binding assay; settings: [3H]LSD approx. 1 nM; membranes from HEK-EBNA cells transiently expressing 5-HT5A; Ki from IC50 by Cheng-Prussoff
T1 construct: expressed in transfected cells; host or cells: Human Embryonic Kidney-EBNA (HEK-EBNA) cells, transient cDNA expression; membranes
Experimental: A [^3H]LSD radioligand binding assay was used to determine the affinity of the compounds for the recombinant human 5-HT5A receptor, in membranes from transiently (cDNA) expressed 5-HT5A receptors in Human Embryonic Kidney-EBNA (HEK-EBNA) cells. Assay buffer consisted of Tris (50 mM) buffer containing 1 mM EGTA, 10 mM MgCl2 (pH 7.4) and 10 μM pargyline. The binding assay was carried out in 96-well-plates in the presence of [^3H]LSD (approximately 1 nM), approximately 2 μg/well of membrane protein, and 0.5 mg of Ysi-poly-l-lysine SPA beads in a final volume of 200 μl of buffer. Non-specific binding was defined using methiothepin 2 μM. Compounds were tested at 10 concentrations. All assays were conducted in duplicate and repeated at least two times. Assay plates were incubated for 120 min at room temperature before centrifugation. Bound ligand was determined using a Packard Topcount scintillation counter. IC50 values were calculated using a non-linear curve fitting program and Ki values calculated using the Cheng-Prussoff equation.

T1 sequence (P47898 whole entry): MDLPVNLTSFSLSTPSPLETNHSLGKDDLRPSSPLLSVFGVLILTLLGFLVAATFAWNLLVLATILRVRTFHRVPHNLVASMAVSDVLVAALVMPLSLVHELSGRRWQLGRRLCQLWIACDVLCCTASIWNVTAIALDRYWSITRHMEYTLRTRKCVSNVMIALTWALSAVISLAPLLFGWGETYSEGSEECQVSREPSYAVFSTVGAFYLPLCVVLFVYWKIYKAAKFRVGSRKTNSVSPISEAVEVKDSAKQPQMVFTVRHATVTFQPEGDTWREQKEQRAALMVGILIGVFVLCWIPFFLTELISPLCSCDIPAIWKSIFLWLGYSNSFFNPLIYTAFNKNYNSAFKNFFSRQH

Row | Structure (SMILES) | Ki
1 | Cc1ccc(CNc2ccc3c(Nc4ccc(F)cc4)cccc3n2)o1 [Example 45, N5-(4-Fluoro-phenyl)-N2-(5-methyl-furan-2-ylmethyl)-quinoline-2,5-diamine] | 0.0132 µM
2 | COc1ccccc1CNc1ccc2c(CCc3cccc(CO)c3)cccc2n1 [Example 23, (3-{2-[2-(2-Methoxy-benzylamino)-quinolin-5-yl]-ethyl}-phenyl)-methanol] | 0.0184 µM
3 | Cc1cc2cccc(Nc3ccc4c(NS(=O)(=O)c5ccc(F)cc5)cccc4n3)c2o1 [Example 128, 4-Fluoro-N-[2-(2-methyl-benzofuran-7-ylamino)-quinolin-5-yl]-benzenesulfonamide] | 0.0797 µM
4 | CC(Nc1cccc2nc(Nc3cccc4c3OC(C)(C)C4)ccc12)c1cccnc1 (racemic) [Example 162, rac-N2-(2,2-Dimethyl-2,3-dihydro-benzofuran-7-yl)-N5-(1-pyridin-3-yl-ethyl)-quinoline-2,5-diamine] | 0.00715 µM
5 | O=S(=O)(Nc1cccc2nc(Nc3cccc4c3OCC4)ccc12)c1cc(F)cc(F)c1 [Example 139, N-[2-(2,3-Dihydro-benzofuran-7-ylamino)-quinolin-5-yl]-3,5-difluoro-benzenesulfonamide] | 0.0355 µM
6 | COc1ccccc1CNc1ccc2c(CCc3ccccc3)cccc2n1 [Example 4, (2-Methoxy-benzyl)-(5-phenethyl-quinolin-2-yl)-amine] | 0.00951 µM
7 | Cc1ccc(CNc2ccc3c(CCc4cccc(S(N)(=O)=O)c4)cccc3n2)o1 [Example 34, 3-(2-{2-[(5-Methyl-furan-2-ylmethyl)-amino]-quinolin-5-yl}-ethyl)-benzenesulfonamide] | 0.0124 µM
8 | Cc1ccc(CNc2ccc3c(NS(=O)(=O)Nc4ccccc4)cccc3n2)o1 [Example 145, N-(2-{[(5-methyl-2-furyl)methyl]amino}quinolin-5-yl)-N′-phenylsulfamide] | 0.0513 µM
9 | COc1cccc(OC)c1CNc1ccc2c(NCc3cccc4[nH]ccc34)cccc2n1 [Example 109, N2-(2,6-Dimethoxy-benzyl)-N5-(1H-indol-4-ylmethyl)-quinoline-2,5-diamine] | 0.0973 µM
10 | COc1ccccc1CNc1ccc2c(NCc3ccncc3)cccc2n1 [Example 9, N2-(2-Methoxy-benzyl)-N5-pyridin-4-ylmethyl-quinoline-2,5-diamine] | 0.0345 µM
11 | CC1Cc2cccc(Nc3ccc4c(NCc5cccc6[nH]ccc56)cccc4n3)c2O1 (stereo not shown) [Example 140, N5-(1H-Indol-4-ylmethyl)-N2-(2-methyl-2,3-dihydro-benzofuran-7-yl)-quinoline-2,5-diamine] | 0.0119 µM
12 | COc1ccccc1CNc1ccc2c(NCc3ccccc3)cccc2n1 [Example 7, N5-Benzyl-N2-(2-methoxy-benzyl)-quinoline-2,5-diamine] | 0.00757 µM
13 | COc1ccccc1CNc1ccc2c(NCc3cc[nH]n3)cccc2n1 [Example 98, N2-(2-Methoxy-benzyl)-N5-(1H-pyrazol-3-ylmethyl)-quinoline-2,5-diamine] | 0.0333 µM
14 | CC1Cc2cccc(Nc3ccc4c(NS(=O)(=O)c5cc(F)cc(F)c5)cccc4n3)c2O1 (racemic) [Example 134, rac-3,5-Difluoro-N-[2-(2-methyl-2,3-dihydro-benzofuran-7-ylamino)-quinolin-5-yl]-benzenesulfonamide] | 0.0217 µM
15 | Cc1ccc(CNc2ccc3c(NC4CCSc5ccccc54)cccc3n2)o1 (racemic) [Example 135, rac-N2-(5-Methyl-furan-2-ylmethyl)-N5-thiochroman-4-yl-quinoline-2,5-diamine] | 0.0171 µM
16 | COc1ccccc1CNc1ccc2c(NS(=O)(=O)c3ccc(F)cc3)cccc2n1 [Example 61, 4-Fluoro-N-[2-(2-methoxy-benzylamino)-quinolin-5-yl]-benzenesulfonamide] | 0.0192 µM
17 | Cc1nc[nH]c1CNc1cccc2nc(Nc3cccc4c3OC(C)(C)C4)ccc12 [Example 149, N2-(2,2-Dimethyl-2,3-dihydro-benzofuran-7-yl)-N5-(5-methyl-3H-imidazol-4-ylmethyl)-quinoline-2,5-diamine] | 0.00397 µM
18 | Cc1ccc(CNc2ccc3c(NS(=O)(=O)c4ccccc4)cccc3n2)o1 [Example 39, N-{2-[(5-Methyl-furan-2-ylmethyl)-amino]-quinolin-5-yl}-benzenesulfonamide] | 0.0287 µM
19 | COc1ccccc1CNc1ccc2c(NCc3cnc[nH]3)cccc2n1 [Example 101, N5-(3H-Imidazol-4-ylmethyl)-N2-(2-methoxy-benzyl)-quinoline-2,5-diamine] | 0.0145 µM
20 | Cc1ccc(CNc2ccc3c(NCc4ccccc4N4CCN(C)CC4)cccc3n2)o1 [Example 105, N2-(5-Methyl-furan-2-ylmethyl)-N5-[2-(4-methyl-piperazin-1-yl)-benzyl]-quinoline-2,5-diamine] | 0.0241 µM

Row | Structure (SMILES) | Ki
21 | Cc1ccc(CNc2ccc3c(NCc4nccs4)cccc3n2)o1 [Example 100, N2-(5-Methyl-furan-2-ylmethyl)-N5-thiazol-2-ylmethyl-quinoline-2,5-diamine] | 0.0227 µM
22 | Cc1ccc(CNc2ccc3c(CCc4ccccn4)cccc3n2)o1 [Example 54, (5-Methyl-furan-2-ylmethyl)-[5-(2-pyridin-2-yl-ethyl)-quinolin-2-yl]-amine] | 0.0447 µM
23 | COc1ccccc1CNc1ccc2c(C(=NO)c3ccc(F)cc3)cccc2n1 [Example 167, (4-Fluoro-phenyl)-[2-(2-methoxy-benzylamino)-quinolin-5-yl]-methanone oxime] | 0.00719 µM
24 | FC(F)(F)Oc1ccccc1CNc1ccc2c(NCc3cccc4[nH]ccc34)cccc2n1 [Example 116, N5-(1H-Indol-4-ylmethyl)-N2-(2-trifluoromethoxy-benzyl)-quinoline-2,5-diamine] | 0.0329 µM
25 | O=S(=O)(Nc1cccc2nc(NCCOc3ccccc3)ccc12)c1cc(F)cc(F)c1 [Example 77, 3,5-Difluoro-N-[2-(2-phenoxy-ethylamino)-quinolin-5-yl]-benzenesulfonamide] | 0.0191 µM
26 | Cc1ccc(CNc2ccc3c(Nc4cccc5cc[nH]c45)cccc3n2)o1 [Example 93, N5-(1H-Indol-7-yl)-N2-(5-methyl-furan-2-ylmethyl)-quinoline-2,5-diamine] | 0.0282 µM
27 | CC(Nc1cccc2nc(Nc3cccc4c3OC(C)(C)C4)ccc12)c1nccs1 (racemic) [Example 160, rac-N2-(2,2-Dimethyl-2,3-dihydro-benzofuran-7-yl)-N5-(1-thiazol-2-yl-ethyl)-quinoline-2,5-diamine] | 0.0158 µM
28 | Cc1cc2cccc(Nc3ccc4c(NCc5cccnc5)cccc4n3)c2o1 [Example 129, N2-(2-Methyl-benzofuran-7-yl)-N5-pyridin-3-ylmethyl-quinoline-2,5-diamine] | 0.016 µM
29 | Cc1cc2cccc(Nc3ccc4c(NCc5cc(F)cc(F)c5)cccc4n3)c2o1 [Example 132, N5-(3,5-Difluoro-benzyl)-N2-(2-methyl-benzofuran-7-yl)-quinoline-2,5-diamine] | 0.015 µM
30 | Cc1cc2cccc(Nc3ccc4c(NCc5cccc6[nH]ccc56)cccc4n3)c2o1 [Example 111, N5-(1H-Indol-4-ylmethyl)-N2-(2-methyl-benzofuran-7-yl)-quinoline-2,5-diamine] | 0.0101 µM
31 | Cc1ccc(CNc2ccc3c(CNc4ccccn4)cccc3n2)o1 [Example 37, (5-Methyl-furan-2-ylmethyl)-[5-(pyridin-2-ylaminomethyl)-quinolin-2-yl]-amine] | 0.0495 µM
32 | Cc1cc2cccc(Nc3ccc4c(NCc5ccc6[nH]cnc6c5)cccc4n3)c2o1 [Example 124, N5-(1H-Benzoimidazol-5-ylmethyl)-N2-(2-methyl-benzofuran-7-yl)-quinoline-2,5-diamine] | 0.00629 µM
33 | Cc1ccc(CNc2ccc3c(Nc4cccc5[nH]ccc45)cccc3n2)o1 [Example 94, N5-(1H-Indol-4-yl)-N2-(5-methyl-furan-2-ylmethyl)-quinoline-2,5-diamine] | 0.0107 µM
34 | Cc1ccc(CNc2ccc3c(CNc4cccnc4)cccc3n2)o1 [Example 21, (5-Methyl-furan-2-ylmethyl)-[5-(pyridin-3-ylaminomethyl)-quinolin-2-yl]-amine] | 0.0358 µM
35 | Cc1ccc(CNc2ccc3c(Nc4ccc(F)c5[nH]ccc45)cccc3n2)o1 [Example 119, N5-(7-Fluoro-1H-indol-4-yl)-N2-(5-methyl-furan-2-ylmethyl)-quinoline-2,5-diamine] | 0.00845 µM
36 | Cc1ccc(CNc2ccc3c(NCc4cccc5[nH]ccc45)cccc3n2)o1 [Example 91, N5-(1H-Indol-4-ylmethyl)-N2-(5-methyl-furan-2-ylmethyl)-quinoline-2,5-diamine] | 0.00525 µM
37 | Cc1ccc(CNc2ccc3c(NS(=O)(=O)Nc4ccc(F)cc4)cccc3n2)o1 [Example 154, N-(2-{[(5-methyl-2-furyl)methyl]amino}quinolin-5-yl)-N′-(4-fluorophenyl)sulfamide] | 0.0255 µM
38 | Cc1cc2cccc(Nc3ccc4c(NCc5cnc[nH]5)cccc4n3)c2o1 [Example 131, N5-(3H-Imidazol-4-ylmethyl)-N2-(2-methyl-benzofuran-7-yl)-quinoline-2,5-diamine] | 0.0174 µM
39 | COc1ccccc1CNc1ccc2c(NCc3ccc4nc[nH]c4c3)cccc2n1 [Example 114, N5-(3H-Benzoimidazol-5-ylmethyl)-N2-(2-methoxy-benzyl)-quinoline-2,5-diamine] | 0.00333 µM
40 | COc1cccc(OC)c1CNc1ccc2c(NCc3cccnc3)cccc2n1 [Example 99, N2-(2,6-Dimethoxy-benzyl)-N5-pyridin-3-ylmethyl-quinoline-2,5-diamine] | 0.0846 µM
